Experimental data as given in patent US9556165B2 (priority 2012, dated 2017).
In brackets after ≈: the same amount, converted by molar mass. Where two headings read alike, the source gives them in different places.

Tests used:
Assay type in all cases: cell-based
E. coli ATCC25922 = experiment: MIC determination, broth microdilution (CLSI); conditions: Escherichia coli, ATCC25922, strain 1
E. coli J62 = experiment: MIC determination, broth microdilution (CLSI); conditions: Escherichia coli, J62, strain 17; broth microdilution; read-out: MIC strain 17 (E. coli J62)
B. fragilis 6688 = experiment: MIC determination, broth microdilution (CLSI); conditions: Bacteroides fragilis, 6688, strain 15; broth microdilution; read-out: MIC strain 15 (B. fragilis 6688)
P. aeruginosa PAO1 = experiment: MIC determination, broth microdilution (CLSI); conditions: Pseudomonas aeruginosa, PAO1, strain 6
H. influenzae ATCC 49247 = experiment: MIC determination, broth microdilution (CLSI); conditions: Haemophilus influenzae, ATCC49247, strain 12; broth microdilution; read-out: MIC strain 12 (H. influenzae ATCC 49247)
E. cloacae 34654 = experiment: MIC determination, broth microdilution (CLSI); conditions: Enterobacter cloacae, 34654, strain 3
S. maltophilia ICB7569 = experiment: MIC determination, broth microdilution (CLSI); conditions: Stenotrophomonas maltophilia, ICB7569, strain 10
E. coli J62-TEM-3 = experiment: MIC determination, broth microdilution (CLSI); conditions: Escherichia coli, J62TEM3, read-out: MIC strain 18 (E. coli J62-TEM-3), strain 18; broth microdilution
A. baumannii ATCC15308 = experiment: MIC determination, broth microdilution (CLSI); conditions: Acinetobacter baumannii, ATCC15308, strain 9
S. pneumoniae 113 = experiment: MIC determination, broth microdilution (CLSI); conditions: Streptococcus pneumoniae, 113, strain 13; broth microdilution; read-out: MIC strain 13 (S. pneumoniae 113)
[1] = system: P. aeruginosa 2297 (AmpC wt); experiment: MIC determination, broth microdilution (CLSI); conditions: Pseudomonas aeruginosa, strain 7
C. freundii K21/3034 = experiment: MIC determination, broth microdilution (CLSI); conditions: Citrobacter freundii, K21/3034, strain 4
[2] = system: P. aeruginosa 2297-con (AmpC derepressed); experiment: MIC determination, broth microdilution (CLSI); conditions: Pseudomonas aeruginosa, read-out: strain 8 MIC, strain 8
K. pneumoniae 60 = experiment: MIC determination, broth microdilution (CLSI); conditions: Klebsiella pneumoniae, 60, strain 2
Bacteria = experiment: MIC determination in combination with β-lactamase inhibitors (constant 4 μg/mL)
S. aureus 133 = experiment: MIC determination, broth microdilution (CLSI)
C. perfringens DSM756 = experiment: microbe, parasite or virus in culture; conditions: Clostridium perfringens, DSM756, read-out: MIC strain 16 (C. perfringens DSM756), strain 16; broth microdilution
M. morganii 126/3048 = experiment: MIC determination, broth microdilution (CLSI); conditions: Morganella morganii, 126/3048, strain 5
[3] = Staphylococcus aureus, 133, strain 11, read-out: strain 11 MIC
[4] = Staphylococcus aureus, 133, strain 14, broth microdilution, read-out: MIC strain 14 (S. aureus 133)

Row | SMILES | MIC (E. coli ATCC25922) | MIC (E. coli J62) | MIC (B. fragilis 6688) | MIC (P. aeruginosa PAO1) | MIC (H. influenzae ATCC 49247) | MIC (E. cloacae 34654) | MIC (S. maltophilia ICB7569) | MIC (E. coli J62-TEM-3) | MIC (A. baumannii ATCC15308) | MIC (S. pneumoniae 113) | MIC [1] | MIC (C. freundii K21/3034) | MIC [2] | MIC (K. pneumoniae 60) | MIC strain 19 (E. coli J62-TEM-3 + 4 μg/mL clavulanic acid) (Bacteria) | MIC strain 20 (E. coli J62-TEM-3 + 4 μg/mL sulbactam) (Bacteria) | MIC strain 21 (E. coli J62-TEM-3 + 4 μg/mL tazobactam) (Bacteria) | MIC (S. aureus 133; [3]) | MIC (C. perfringens DSM756) | MIC (M. morganii 126/3048) | further results
1 | CC1(C)[C@H](NC(=O)/C(=N\O[C@@H](COc2ccc(C(=N)NC3CCCNC3)cc2)C(=O)O)c2csc(N)n2)C(=O)N1OS(=O)(=O)O (stereo partly drawn) [Example 97, (2S)-2-({[(1Z)-1-(2-Amino-1,3-thiazol-4-yl)-2-{[(3S)-2,2-dimethyl-4-oxo-1-(sulfooxy)azetidin-3-yl]amino}-2-oxoethylidene]amino}oxy)-3-{4-[N-(piperidin-3-yl)carbamimidoyl]phenoxy}propanoic acid] | ≤ 0.063 µg/mL | 0.125 µg/mL (≈ 0.187 µM) | 4 µg/mL (≈ 5.98 µM) | 1 µg/mL (≈ 1.5 µM) | ≤ 0.063 µg/mL | 0.125 µg/mL (≈ 0.187 µM) | 4 µg/mL (≈ 5.98 µM) | 4 µg/mL (≈ 5.98 µM) | 1 µg/mL (≈ 1.5 µM) | 0.5 µg/mL (≈ 0.748 µM) | 1 µg/mL (≈ 1.5 µM) | ≤ 0.063 µg/mL | 1 µg/mL (≈ 1.5 µM) | 0.125 µg/mL (≈ 0.187 µM) | ≦0.063 mg/L | ≦0.063 mg/L | ≦0.063 mg/L | ≤ 0.063 µg/mL | 0.5 µg/mL (≈ 0.748 µM) | ≤ 0.063 µg/mL | MIC (S. aureus 133; [4]): 32 µg/mL (≈ 47.9 µM)
2 | CC1(C)[C@H](NC(=O)/C(=N\O[C@@H](COc2ccc(C(=N)NCC3CCCN3)cc2)C(=O)O)c2csc(N)n2)C(=O)N1OS(=O)(=O)O (stereo partly drawn) [Example 98, (2S)-2-({[(1Z)-1-(2-Amino-1,3-thiazol-4-yl)-2-{[(3S)-2,2-dimethyl-4-oxo-1-(sulfooxy)-azetidin-3-yl]amino}-2-oxoethylidene]amino}oxy)-3-{4-[N-(pyrrolidin-2-ylmethyl)carbamimidoyl]phenoxy}propanoic acid] | 0.125 µg/mL (≈ 0.187 µM) | 0.125 µg/mL (≈ 0.187 µM) | 8 µg/mL (≈ 12 µM) | 1 µg/mL (≈ 1.5 µM) | ≤ 0.063 µg/mL | 0.125 µg/mL (≈ 0.187 µM) | 4 µg/mL (≈ 5.98 µM) | 8 µg/mL (≈ 12 µM) | 1 µg/mL (≈ 1.5 µM) | 0.5 µg/mL (≈ 0.748 µM) | 2 µg/mL (≈ 2.99 µM) | 0.125 µg/mL (≈ 0.187 µM) | 2 µg/mL (≈ 2.99 µM) | 0.125 µg/mL (≈ 0.187 µM) | 0.125 µg/mL | 0.125 µg/mL | 0.125 µg/mL | ≤ 0.063 µg/mL | 2 µg/mL (≈ 2.99 µM) | ≤ 0.063 µg/mL | MIC (S. aureus 133; [4]): 32 µg/mL (≈ 47.9 µM)
3 | CC1(C)[C@H](NC(=O)/C(=N\O[C@@H](COc2ccc(C(=N)NCC3CCCCN3)cc2)C(=O)O)c2csc(N)n2)C(=O)N1OS(=O)(=O)O (stereo partly drawn) [Example 99, (2S)-2-({[(1Z)-1-(2-Amino-1,3-thiazol-4-yl)-2-{[(3S)-2,2-dimethyl-4-oxo-1-(sulfooxy)-azetidin-3-yl]amino}-2-oxoethylidene]amino}oxy)-3-{4-[N-(piperidin-2-ylmethyl)carbamimidoyl]phenoxy}propanoic acid] | 0.125 µg/mL (≈ 0.183 µM) | 0.25 µg/mL (≈ 0.366 µM) | 8 µg/mL (≈ 11.7 µM) | 2 µg/mL (≈ 2.93 µM) | ≤ 0.063 µg/mL | 0.25 µg/mL (≈ 0.366 µM) | 4 µg/mL (≈ 5.86 µM) | 4 µg/mL (≈ 5.86 µM) | 2 µg/mL (≈ 2.93 µM) | 0.5 µg/mL (≈ 0.732 µM) | 2 µg/mL (≈ 2.93 µM) | 0.125 µg/mL (≈ 0.183 µM) | 2 µg/mL (≈ 2.93 µM) | 0.25 µg/mL (≈ 0.366 µM) | 0.125 µg/mL | 0.125 µg/mL | 0.25 µg/mL | ≤ 0.063 µg/mL | 0.5 µg/mL (≈ 0.732 µM) | ≤ 0.063 µg/mL | MIC (S. aureus 133; [4]): 32 µg/mL (≈ 46.9 µM)
4 | CN1CC[C@H](NC(=N)c2ccc(OC[C@H](O/N=C(\C(=O)N[C@@H]3C(=O)N(OS(=O)(=O)O)C3(C)C)c3csc(N)n3)C(=O)O)cc2)C1 [Example 101] | 0.125 µg/mL (≈ 0.187 µM) | 0.125 µg/mL (≈ 0.187 µM) | 8 µg/mL (≈ 12 µM) | 2 µg/mL (≈ 2.99 µM) | ≤ 0.063 µg/mL | 0.125 µg/mL (≈ 0.187 µM) | 8 µg/mL (≈ 12 µM) | 8 µg/mL (≈ 12 µM) | 4 µg/mL (≈ 5.98 µM) | 0.5 µg/mL (≈ 0.748 µM) | 4 µg/mL (≈ 5.98 µM) | 0.125 µg/mL (≈ 0.187 µM) | 2 µg/mL (≈ 2.99 µM) | 0.125 µg/mL (≈ 0.187 µM) | ≦0.063 mg/L | ≦0.063 mg/L | 0.125 µg/mL | ≤ 0.063 µg/mL | 2 µg/mL (≈ 2.99 µM) | 0.125 µg/mL (≈ 0.187 µM) | –
5 | CC1(C)[C@H](NC(=O)/C(=N\O[C@@H](COc2ccc(C(=N)NC(CN)CN)cc2)C(=O)O)c2csc(N)n2)C(=O)N1OS(=O)(=O)O [Example 102, (2S)-2-({[(1Z)-1-(2-Amino-1,3-thiazol-4-yl)-2-{[(3S)-2,2-dimethyl-4-oxo-1-(sulfooxy)azetidin-3-yl]amino}-2-oxoethylidene]amino}oxy)-3-{4-[N-(1,3-diaminopropan-2-yl)carbamimidoyl]phenoxy}propanoic acid] | 0.125 µg/mL (≈ 0.19 µM) | 0.125 µg/mL (≈ 0.19 µM) | 8 µg/mL (≈ 12.2 µM) | 1 µg/mL (≈ 1.52 µM) | ≤ 0.063 µg/mL | 0.25 µg/mL (≈ 0.38 µM) | 4 µg/mL (≈ 6.08 µM) | 4 µg/mL (≈ 6.08 µM) | 4 µg/mL (≈ 6.08 µM) | 0.5 µg/mL (≈ 0.76 µM) | 2 µg/mL (≈ 3.04 µM) | ≤ 0.063 µg/mL | 2 µg/mL (≈ 3.04 µM) | ≤ 0.063 µg/mL | ≦0.063 mg/L | ≦0.063 mg/L | 0.125 µg/mL | ≤ 0.063 µg/mL | 2 µg/mL (≈ 3.04 µM) | ≤ 0.063 µg/mL | –
6 | CC1(C)[C@H](NC(=O)/C(=N\O[C@@H](COc2ccc(C(=N)NC3CNCC3N)cc2)C(=O)O)c2csc(N)n2)C(=O)N1OS(=O)(=O)O (stereo partly drawn) [Example 106, (2S)-3-{4-[N-(4-Aminopyrrolidin-3-yl)carbamimidoyl]phenoxy}-2-({[(1Z)-1-(2-amino-1,3-thiazol-4-yl)-2-{[(3S)-2,2-dimethyl-4-oxo-1-(sulfooxy)azetidin-3-yl]amino}-2-oxoethylidene]amino}oxy)propanoic acid] | 0.125 µg/mL (≈ 0.187 µM) | 0.125 µg/mL (≈ 0.187 µM) | 8 µg/mL (≈ 11.9 µM) | 1 µg/mL (≈ 1.49 µM) | ≤ 0.063 µg/mL | 0.125 µg/mL (≈ 0.187 µM) | 4 µg/mL (≈ 5.97 µM) | 8 µg/mL (≈ 11.9 µM) | 2 µg/mL (≈ 2.99 µM) | 0.5 µg/mL (≈ 0.747 µM) | 2 µg/mL (≈ 2.99 µM) | 0.125 µg/mL (≈ 0.187 µM) | 1 µg/mL (≈ 1.49 µM) | 0.125 µg/mL (≈ 0.187 µM) | 0.125 µg/mL | ≦0.063 mg/L | 0.125 µg/mL | ≤ 0.063 µg/mL | 1 µg/mL (≈ 1.49 µM) | ≤ 0.063 µg/mL | –
7 | CC1(C)[C@H](NC(=O)/C(=N\O[C@@H](COc2ccc(C(=N)NC3CNC3)cc2)C(=O)O)c2csc(N)n2)C(=O)N1OS(=O)(=O)O [Example 107, (2S)-2-({[(1Z)-1-(2-Amino-1,3-thiazol-4-yl)-2-{[(3S)-2,2-dimethyl-4-oxo-1-(sulfooxy)azetidin-3-yl]amino}-2-oxoethylidene]amino}oxy)-3-{4-[N-(azetidin-3-yl)carbamimidoyl]phenoxy}propanoic acid] | ≤ 0.063 µg/mL | 0.125 µg/mL (≈ 0.195 µM) | 8 µg/mL (≈ 12.5 µM) | 1 µg/mL (≈ 1.56 µM) | ≤ 0.063 µg/mL | 0.25 µg/mL (≈ 0.39 µM) | 4 µg/mL (≈ 6.24 µM) | 4 µg/mL (≈ 6.24 µM) | 1 µg/mL (≈ 1.56 µM) | 0.5 µg/mL (≈ 0.78 µM) | 1 µg/mL (≈ 1.56 µM) | ≤ 0.063 µg/mL | 1 µg/mL (≈ 1.56 µM) | 0.125 µg/mL (≈ 0.195 µM) | ≦0.063 mg/L | ≦0.063 mg/L | ≦0.063 mg/L | ≤ 0.063 µg/mL | 0.125 µg/mL (≈ 0.195 µM) | ≤ 0.063 µg/mL | MIC (S. aureus 133; [4]): 32 µg/mL (≈ 49.9 µM)
